According to PMC9942528 (Journal of medicinal chemistry, 2022):
Where two headings read alike, the source gives them in different places. Marks after values point to notes of the source that are not given here.

Legend:
[1] = Stability assay in rat liver microsomes; format: in vitro ADME; conditions: for microsomal CLint at 2 h, 10 µM: pH 7.4; for less stable than (R)- and (S)-11b, (R)- and (S)-11c, and 2: recovery after 30 min; for less stable than (R)- and (S)-11b, (R)- and (S)-11c, and 2 / Metabolic stability, % after 30 min incubation: rat microsomes; for Metabolic stability, % after 30 min incubation: 10 μM, parent remaining
[2] = system: mouse microglial N9 cells; assay: Cytotoxicity, MTT assay in N9 cells; format: cell-based
murine N9 cells = assay: ELISA of TNF-α and IL-1β in N9 cells, resting and LPS-stimulated; format: cell-based, mouse; conditions: for release of IL-1β and TNF-α under resting conditions: 0.5 to 5 μM; for effect on LPS-induced cytokines (IL-1β, TNF-α) production: LPS 100 ng/mL 24 h
human FPR2 [3] = target: T1, human FPR2 (Homo sapiens, UniProt P25090); assay: Ca2+ mobilization; conditions: for increase in FPR2 potency as compared to 2: ratio of EC50 values
T1 sequence (P25090 1-351): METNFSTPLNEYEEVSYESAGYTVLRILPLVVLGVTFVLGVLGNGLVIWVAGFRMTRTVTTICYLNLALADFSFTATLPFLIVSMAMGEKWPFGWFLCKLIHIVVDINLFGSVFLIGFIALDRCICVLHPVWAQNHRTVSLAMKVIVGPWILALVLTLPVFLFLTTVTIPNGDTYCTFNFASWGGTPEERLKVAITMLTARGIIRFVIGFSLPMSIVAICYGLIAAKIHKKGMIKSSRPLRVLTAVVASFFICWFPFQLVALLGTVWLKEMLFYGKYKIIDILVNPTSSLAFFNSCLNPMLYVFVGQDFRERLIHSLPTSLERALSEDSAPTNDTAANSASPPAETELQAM

caspase-3 = assay: Caspase-3 activity in rat primary microglial cells; format: cell-based; conditions: 0.1 μM, LPS 100 ng/mL 24 h
[4] = system: rat primary microglial cells; assay: Nitric oxide; format: cell-based; conditions: for effect on LPS-induced NO production: 0.1 μM, LPS 100 ng/mL 24 h; for effect on NO production under resting conditions: rat primary microglial cells
[5] = system: rat primary microglial cells; assay: LDH release assay in rat primary microglial cells; conditions: for effect on LPS-induced cell death (LDH release): 0.1 μM, LPS 100 ng/mL 24 h; for effect on cell viability (LDH) under resting conditions: rat primary microglial cells
human FPR2 [6] = target: T1, human FPR2; conditions: functional antagonism vs WKYMVM
[7] = In vivo pharmacokinetics in mice; conditions: for Tmax: male, CD-1, mouse, plasma
[8] = system: mouse hippocampal organotypic cultures; conditions: OHCs stimulated with LPS, pre-treatment; ref [27]; cited from earlier work
[9] = hCMEC/D3 cells; ref [25]; cited from earlier work
APP/PS1 mouse model = conditions: systemic administration, ref [28]; cited from earlier work
[10] = system: rat primary microglial cells; conditions: rat primary microglial cultures stimulated with LPS; ref [25]; cited from earlier work
[11] = rat microsomes; ref [25]; cited from earlier work
[12] = rat, rat liver microsomes, pH 7.4, half-life

For `N#Cc1ccc(C[C@@H](NC(=O)Nc2ccc(F)cc2)C(=O)NC2CCCCNC2=O)cc1` (stereo partly drawn) [(R)-11a, (2R)-3-(4-Cyanophenyl)-2-(3-(4-fluorophenyl)ureido)-N-(2-oxoazepan-3-yl)propenamide], the microsomal CLint at 2 h, 10 µM ([1]; rat, rat liver microsomes) was 5.5 µL/min/mg, the half-life at 2 h, 10 µM [1, 12] was 120 min and the “cytotoxic effect in the MTT test” value [2] was “did not exert any cytotoxic effects”.
In the case of `N#Cc1ccc(C[C@@H](NC(=O)Nc2ccc(F)cc2)C(=O)N2CCCCC2)cc1` [(R)-11b, (R)-1-(3-(4-Cyanophenyl)-1-oxo-1-(piperidin-1-yl)propan-2-yl)-3-(4-fluorophenyl)urea], the “cytotoxic effect in the MTT test” value [2] is reported as “did not exert any cytotoxic effects”.
With `N#Cc1ccc(C[C@@H](NC(=O)Nc2ccc(F)cc2)C(=O)N2CCCC2)cc1` [(R)-11c, (R)-1-(3-(4-Cyanophenyl)-1-oxo-1-(pyrrolidin-1-yl)propan-2-yl)-3-(4-fluorophenyl)urea] the “cytotoxic effect in the MTT test” value [2] was “did not exert any cytotoxic effects”.
In the case of `N#Cc1ccc(C[C@@H](NC(=O)Nc2ccc(F)cc2)C(=O)N2Cc3ccccc3C2)cc1` [(R)-11d, (R)-1-(3-(4-Cyanophenyl)-1-(isoindolin-2-yl)-1-oxopropan-2-yl)-3-(4-fluorophenyl)urea], the “less stable than (R)- and (S)-11b, (R)- and (S)-11c, and 2” value (shortened to “less stable than (R)- and (S)-11b”) [1] is reported as 2–3 fold.
With `N#Cc1ccc(C[C@@H](NC(=O)Nc2ccc(F)cc2)C(=O)N2CCc3ccccc32)cc1` [(R)-11e, (R)-1-(3-(4-Cyanophenyl)-1-(indolin-1-yl)-1-oxopropan-2-yl)-3-(4-fluorophenyl)urea] the “less stable than (R)- and (S)-11b” value [1] was 2–3 fold.
For `N#Cc1ccc(C[C@@H](NC(=O)Nc2ccc(F)cc2)C(=O)N2CCc3ccccc3C2)cc1` [(R)-11f, (R)-1-(3-(4-Cyanophenyl)-1-(3,4-dihydroisoquinolin-2(1H)-yl)-1oxopropan-2-yl)-3-(4-fluorophenyl)urea], the “less stable than (R)- and (S)-11b” value [1] was 2–3 fold.
For `N#Cc1ccc(C[C@@H](NC(=O)Nc2ccc(F)cc2)C(=O)N2CCCc3ccccc32)cc1` [(R)-11g, (R)-1-(3-(4-Cyanophenyl)-1-(3,4-dihydroquinolin-1(2H)-yl)-1-oxopropan-2-yl)-3-(4-fluorophenyl)urea], the “less stable than (R)- and (S)-11b” value [1] was 2–3 fold.
With `N#Cc1ccc(C[C@@H](NC(=O)Nc2ccc(F)cc2)C(=O)N2CCc3cc(F)ccc32)cc1` [(R)-11i, (R)-1-(3-(4-Cyanophenyl)-1-(5-fluoroindolin-1-yl)-1-oxopropan-2-yl)-3-(4-fluorophenyl)urea] the “Metabolic stability, % after 30 min incubation” value (shortened to “Metabolic stability, %”) [1] was 58%, the microsomal CLint at 2 h, 10 µM ([1]; rat, rat liver microsomes) was 6.4 µL/min/mg and the half-life at 10 μM [1, 12] was 108 min.
Work on `N#Cc1ccc(C[C@@H](NC(=O)Nc2ccc(F)cc2)C(=O)N2CCc3ccc(F)cc32)cc1` [(R)-11l, (R)-1-(3-(4-Cyanophenyl)-1-(6-fluoroindolin-1-yl)-1-oxopropan-2-yl)-3-(4-fluorophenyl)urea] yielded a microsomal CLint at 2 h, 10 µM ([1]; rat, rat liver microsomes) of 23.3 µL/min/mg and a half-life at 2 h, 10 µM [1, 12] of 30 min.
In the case of `N#Cc1ccc(C[C@H](NC(=O)Nc2ccc(F)cc2)C(=O)NC2CCCCNC2=O)cc1` (stereo partly drawn) [(S)-11a, (2S)-3-(4-Cyanophenyl)-2-(3-(4-fluorophenyl)ureido)-N-(2-oxoazepan-3-yl)propenamide], the “release of IL-1β and TNF-α under resting conditions” value (from here on “release … under resting conditions”) (murine N9 cells) is reported as “did not induce the release”, the “effect on LPS-induced cytokines (IL-1β, TNF-α) production” value (“effect on LPS-induced cytokines” for short) (murine N9 cells) is reported as “effectively decrease LPS-induced cytokines production” and the microsomal CLint at 2 h, 10 µM ([1]; rat, rat liver microsomes) is reported as 4.4 µL/min/mg. For the same compound, the half-life at 2 h, 10 µM [1, 12] was 157 min, the “cytotoxic effect in the MTT test” value [2] was “did not exert any cytotoxic effects” and the “increase in FPR2 potency as compared to 2” value (“increase in FPR2 potency” below) (human FPR2 [3]) was 20 fold.
With `N#Cc1ccc(C[C@H](NC(=O)Nc2ccc(F)cc2)C(=O)N2CCCCC2)cc1` [(S)-11b, (S)-1-(3-(4-Cyanophenyl)-1-oxo-1-(piperidin-1-yl)propan-2-yl)-3-(4-fluorophenyl)urea] the “Metabolic stability, %” value [1] was 34%, the microsomal CLint at 2 h, 10 µM ([1]; rat, rat liver microsomes) was 13.9 µL/min/mg and the “cytotoxic effect in the MTT test” value [2] was “did not exert any cytotoxic effects”. For the same compound, the “increase in FPR2 potency” value (human FPR2 [3]) was 4 fold.
For `N#Cc1ccc(C[C@H](NC(=O)Nc2ccc(F)cc2)C(=O)N2CCCC2)cc1` [(S)-11c, (S)-1-(3-(4-Cyanophenyl)-1-oxo-1-(pyrrolidin-1-yl)propan-2-yl)-3-(4-fluorophenyl)urea], the “Metabolic stability, %” value [1] was 65%, the microsomal CLint at 2 h, 10 µM ([1]; rat, rat liver microsomes) was 6.2 µL/min/mg and the “cytotoxic effect in the MTT test” value [2] was “did not exert any cytotoxic effects”. For the same compound, the “increase in FPR2 potency” value (human FPR2 [3]) was “equipotent”.
For `N#Cc1ccc(C[C@H](NC(=O)Nc2ccc(F)cc2)C(=O)N2Cc3ccccc3C2)cc1` [(S)-11d, (S)-1-(3-(4-Cyanophenyl)-1-(isoindolin-2-yl)-1-oxopropan-2-yl)-3-(4-fluorophenyl)urea], the microsomal CLint at 2 h, 10 µM ([1]; rat, rat liver microsomes) was 24.7 µL/min/mg, the half-life at 2 h, 10 µM [1, 12] was 28 min and the “less stable than (R)- and (S)-11b” value [1] was 2–3 fold.
With `N#Cc1ccc(C[C@H](NC(=O)Nc2ccc(F)cc2)C(=O)N2CCc3ccccc32)cc1` [(S)-11e, (S)-1-(3-(4-Cyanophenyl)-1-(indolin-1-yl)-1-oxopropan-2-yl)-3-(4-fluorophenyl)urea] the “effect on LPS-induced activation of caspase-3” value (caspase-3) was “significantly reduced this activation”, the “effect on LPS-induced NO production” value [4] was “effectively blocked” and the “effect on NO production under resting conditions” value [4] was “did not induce any effect”. The “release … under resting conditions” value (murine N9 cells) was “did not induce the release”, the “effect on LPS-induced cytokines” value (murine N9 cells) was “effectively decrease LPS-induced cytokines production” and the microsomal CLint at 2 h, 10 µM ([1]; rat, rat liver microsomes) was 33 µL/min/mg. For the same compound, the half-life at 2 h, 10 µM [1, 12] was 21 min, the “less stable than (R)- and (S)-11b” value [1] was 2–3 fold and the “effect on LPS-induced cell death (LDH release)” value [5] was “effectively blocked LPS-induced cell death”. For the same compound, the “effect on cell viability (LDH) under resting conditions” value [5] was “did not induce any effect”.
For `N#Cc1ccc(C[C@H](NC(=O)Nc2ccc(F)cc2)C(=O)N2CCc3ccccc3C2)cc1` [(S)-11f, (S)-1-(3-(4-Cyanophenyl)-1-(3,4-dihydroisoquinolin-2(1H)-yl)-1oxopropan-2-yl)-3-(4-fluorophenyl)urea], the “IC50 at FPR2, range in words” value (human FPR2 [6]) was “nanomolar range” and the “less stable than (R)- and (S)-11b” value [1] was 2–3 fold.
In the case of `N#Cc1ccc(C[C@H](NC(=O)Nc2ccc(F)cc2)C(=O)N2CCCc3ccccc32)cc1` [(S)-11g, (S)-1-(3-(4-Cyanophenyl)-1-(3,4-dihydroquinolin-1(2H)-yl)-1-oxopropan-2-yl)-3-(4-fluorophenyl)urea], the “less stable than (R)- and (S)-11b” value [1] is reported as 2–3 fold.
In the case of `N#Cc1ccc(C[C@H](NC(=O)Nc2ccc(F)cc2)C(=O)N2CCC(F)(F)CC2)cc1` [(S)-11h, (S)-1-(3-(4-Cyanophenyl)-1-(4,4-difluoropiperidin-1-yl)-1-oxopropan-2-yl)-3-(4-fluorophenyl)urea], the “cytotoxic effect in the MTT test” value [2] is reported as “did not exert any cytotoxic effects” and the “loss of FPR2 potency versus the non-substituted counterpart” value (human FPR2 [3]; 11h vs 11b) is reported as 20 fold.
`N#Cc1ccc(C[C@H](NC(=O)Nc2ccc(F)cc2)C(=O)N2Cc3ccc(F)cc3C2)cc1` [(S)-11j, (S)-1-(3-(4-Cyanophenyl)-1-(5-fluoroisoindolin-2-yl)-1-oxopropan-2-yl)-3-(4-fluorophenyl)urea] showed a microsomal CLint at 2 h, 10 µM ([1]; rat, rat liver microsomes) of 4.1 µL/min/mg.
In the case of `N#Cc1ccc(C[C@H](NC(=O)Nc2ccc(F)cc2)C(=O)N2CCc3ccc(F)cc32)cc1` [(S)-11l, (S)-1-(3-(4-Cyanophenyl)-1-(6-fluoroindolin-1-yl)-1-oxopropan-2-yl)-3-(4-fluorophenyl)urea], the Tmax ([7]; ip, 10 mg/kg) is reported as 30 min, the Tmax ([7]; iv, 1 mg/kg) is reported as 5 min and the “blood-brain barrier permeation” value ([7]; mice, i.p. 10 mg/kg) is reported as “able to permeate the blood–brain barrier and to accumulate in the brain”. The “time until which the compound was detectable in plasma” value ([7]; mice, i.v. 1 mg/kg) was 4 h, the “effect on LPS-induced activation of caspase-3” value (caspase-3) was “significantly reduced this activation” and the “effect on LPS-induced NO production” value [4] was “effectively blocked”. The “effect on NO production under resting conditions” value [4] was “did not induce any effect”, the “release … under resting conditions” value (murine N9 cells) was “did not induce the release” and the “effect on LPS-induced cytokines” value (murine N9 cells) was “effectively decrease LPS-induced cytokines production”. The “Metabolic stability, %” value [1] was 33%, the “effect on LPS-induced cell death (LDH release)” value [5] was “effectively blocked LPS-induced cell death” and the “effect on cell viability (LDH) under resting conditions” value [5] was “did not induce any effect”.
In the case of `N#Cc1ccc(C[C@H](NC(=O)Nc2ccc(F)cc2)C(=O)NCC2(c3ccc(F)c(Cl)c3)CC2)cc1` [Compound 2], the “release of TNF-α and IL-1β” value [8] is given as “attenuated the release of TNF-α and IL-1β”, the “efflux ratio ER (BA/AB)” value [9] is given as 2.6 and the “neuronal survival, microglial cell density and plaque load” value (APP/PS1 mouse model) is given as “improved neuronal survival and decreased microglial cell density and plaque load”. The “release of IL-1β and TNF-α” value [10] was “reduces the release”, the “selectivity FPR2 versus FPR1” value (human FPR2 [3]; EC50 FPR1 vs EC50 FPR2) was “almost equipotent at both receptors” and the “Metabolic stability, %” value [11] was 33^b %.
